pEC50: −log10 of the molar value.
Experiments:
[1] = test system: B16F10; test: CellTiter-Glo cell viability assay (example 57); type: cell-based, human; settings: Mus musculus, B16-F10; B16F10 (Melanoma); Cell Titer-Glo; 72 h
[2] = test system: HT29; test: CellTiter-Glo cell viability assay (example 57); type: cell-based; settings: Homo sapiens, HT-29; HT29 (Colon); Cell Titer-Glo; 72 h
[3] = test system: MIA PaCa-2; test: Cell viability assay, pancreatic cancer cell lines; type: cell-based; settings: Homo sapiens; MIA PaCa-2 (Pancreas); 48 h
Protocol: (§1) MiaPaCa-2, Panc-1 cells were grown in Dulbecco's modified eagle's medium (DMEM) (Gibco) supplemented with 10% fetal bovine serum (FBS), while BxPC-3, Capan-1, Capan-2 cells were grown in Roswell Park Memorial Institute 1640 (RPMI 1640) (Gibco) supplemented with 10% FBS. Gemcitabine (Gemzar) was purchased from Lilly France S.A.S (Suresnes, France). (3-(4,5-dimethylthiazol-2-yl)-2,5diphenyltetrazolium bromide, MTT) was purchased from Sigma-Aldrich.
(§2) BxPC-3, MiaPaCa-2, Panc-1 cells were seeded into a 96-well plate at 10,000 10,000 15,000 cells per well respectively, while Capan-1 and Capan-2 cells at 20,000 cells per well and allowed to adhere overnight. Then the culture medium was removed and replaced with fresh media alone as control or containing various concentrations of different compounds. In dose-dependent assay, the cells were treated with compound XIX-3 at the concentration varying from 0.1 μM to 100 μM while the cells being cultured by fresh media alone were used as control. After 48 h treatment, the number of remained viable cells was determined by (3-(4,5-dimethylthiazol-2-yl)-2,5diphenyltetrazolium bromide, MTT) colorimetric assay (see Sigma Aldrich protocol and Riss T. L. et al. Cell Viability Assays in Assay Guidance Manual 2013 ppl.). All experiments were done in duplicate and repeated two independent times.

[4] = test system: Capan-2; test: Cell viability assay, pancreatic cancer cell lines; type: cell-based; settings: Homo sapiens; Capan-2 (Pancreas); 48 h
Protocol: as §1, §2

[5] = test system: BxPC-3; test: Cell viability assay, pancreatic cancer cell lines; type: cell-based; settings: Homo sapiens; BxPC-3 (Pancreas); 48 h
Protocol: as §1, §2

[6] = test system: Panc-1; test: Cell viability assay, pancreatic cancer cell lines; type: cell-based; settings: Homo sapiens; Panc-1 (Pancreas); 48 h
Protocol: as §1, §2

[7] = test system: Capan-1; test: Cell viability assay, pancreatic cancer cell lines; type: cell-based; settings: Homo sapiens; Capan-1 (Pancreas); 48 h
Protocol: as §1, §2

[8] = test system: Kasumi-1; test: CellTiter-Glo cell viability assay (example 57); type: cell-based; settings: Homo sapiens; Kasumi-1 (Leukemia); Cell Titer-Glo; 72 h
Protocol: (§3) The human breast cancer cell line SkBr3 and the human metastatic prostate carcinoma cell line LnCAP were cultured in Dulbecco's modified Eagle's medium (DMEM) supplemented with 10% fetal bovine serum (FBS) and 0.1% sodium pyruvate. The human myelocytic cell line U937 and NB4 were maintained in RPMI medium 1640 1× (Gibco 21875-034) supplemented with 10 % Fetal Bovine Serum (FBS, Eurobio S39130-0808) Kasumi and SKM-1 were maintained in RPMI medium 1640 1× (Gibco 21875-034) supplemented with 20 % Fetal Bovine Serum (FBS, Eurobio S39130-0808), HL60 was maintained in Iscove's modified Dulbecco's medium 1× (IMDM, Gibco 21890) supplemented with 20% Fetal Bovine Serum (FBS, Eurobio S39130-0808), cell line was maintained in MEM alpha medium (Gibco 22561-021) supplemented with 10% FBS at 37° C. with 5% CO2. Cell outgrowth was measured using the CellTiter-Glo luminescent cell viability assay as described by the manufacturer (Promega, Ref G7571 Madison, Wis., USA) using a FLUOstar optima luminometer (BMG Labtech, Ortenberg, Germany).
(§4) Briefly, for adherent cells, 10^4 cells were plated onto 96-well plates (white with clear bottom (3610, Corning Costar) in 100 μL of media per well and were allowed to grow overnight before the assay. For cells growing in suspension, 10^4 cells were plated onto 96-well plates immediately before the assay. […] Vehicle (DMSO) was used as a control, and all compounds were tested in a constant percentage of DMSO (1%). After addition of 50 μL of CellTiter GLO, luminescence was measured using a Centro luminometer (Berthold). EC50 values were determined as the dose of compound required to reduce luminescent values to 50% of the signal obtained for untreated cell cultures. All experiments were done in duplicate and repeated two independent times.

[9] = test system: SKM-1; test: CellTiter-Glo cell viability assay (example 57); type: cell-based; settings: Homo sapiens; SKM-1 (Leukemia); Cell Titer-Glo; 72 h
Protocol: as §3, §4

[10] = test system: SkBr3; test: CellTiter-Glo cell viability assay (example 57); type: cell-based; settings: Homo sapiens, SK-BR-3; SkBr3 (Breast); Cell Titer-Glo; 72 h
Protocol: as §3, §4

[11] = test system: HL60; test: CellTiter-Glo cell viability assay (example 57); type: cell-based; settings: Homo sapiens, HL-60; HL60 (Leukemia); Cell Titer-Glo; 72 h
Protocol: as §3, §4

[12] = test system: KG-1; test: CellTiter-Glo cell viability assay (example 57); type: cell-based; settings: Homo sapiens; KG-1 (Leukemia); Cell Titer-Glo; 72 h
Protocol: as §3, §4

[13] = test system: HepG2; test: CellTiter-Glo cell viability assay (example 57); type: cell-based; settings: Homo sapiens; HepG2 (Liver); Cell Titer-Glo; 72 h
Protocol: as §3, §4

[14] = test system: MOLM-14; test: CellTiter-Glo cell viability assay (example 57); type: cell-based; settings: Homo sapiens; MOLM-14 (Leukemia); Cell Titer-Glo; 72 h
Protocol: as §3, §4

[15] = test system: U937; test: CellTiter-Glo cell viability assay (example 57); type: cell-based; settings: Homo sapiens, U-937; U937 (Leukemia); Cell Titer-Glo; 72 h
Protocol: as §3, §4

[16] = test system: LNCaP; test: CellTiter-Glo cell viability assay (example 57); type: cell-based; settings: Homo sapiens; LNCaP (Prostate); Cell Titer-Glo; 72 h
Protocol: as §3, §4

[17] = test system: NB4; test: CellTiter-Glo cell viability assay (example 57); type: cell-based; settings: Homo sapiens, NB-4; NB4 (Leukemia); Cell Titer-Glo; 72 h
Protocol: as §3, §4

[18] = test system: U87-MG; test: CellTiter 96 Aqueous One Solution (MTS) cell proliferation assay; type: cell-based; settings: Homo sapiens, U-87 MG; U87-MG (Glioma); Cell Titer 96 Aqueous One Solution; 72 h; mean of seven independent triplicate assays
Protocol: The human glioblastoma cell line U87-MG was cultured in Minimum Essential Medium (Life Invitrogen, 31095029) supplemented with 10% fetal bovine serum (GIBCO, 10500-056) and 1 % penicillin-streptomycin (GIBCO, 15140-122). Flasks and plated used for the cell culture were coated with 25 μg/mL poly-D-lysine (Sigma, P7280).
Cell outgrowth was measured using a tetrazolium compound (3-[4,5-dimethylthiazol-2-yl]-5-[3-carboxymethoxyphenyl]-2-[4-sulfophenyl]-2H tetrazolium, inner salt [MTS]) from the CellTiter 96® Aqueous One Solution Cell Proliferation Assay (Promega, Ref G3580) and according to the manufacturer procedure.
5000 cells were plated onto 96-well plates in 100 μL of media per well and were allowed to grow overnight before the assay. Compounds were added at different concentrations to each well, and cell cultures were incubated for 72 h. Control compound was the diluent used for compound resuspension (H2O). After addition of 20 μL of CellTiter 96® Aqueous One Solution, absorbance at 492 nm was measured using a microplate reader Sunrise (Tecan). EC50 values were determined as the dose of compound required to reduce […] values to 50% of the signal obtained for untreated cell cultures. […] The experimental data are analyzed using a computer program, Graphpad Prism (GraphPad Software, Inc. La Jolla, Calif.).

CCN(CCO)CCCC(C)Nc1ccnc2cc(Cl)ccc12 (stereo not drawn) [HCQ, hydroxychloroquine]
pEC50 [1]: 4.70
pEC50 [2]: 4.70
pEC50 [3]: 4.33
pEC50 [4]: 4.33
pEC50 [5]: 4.28
pEC50 [6]: 4.24
pEC50 [7]: 4.39
pEC50 [8]: 4.70
pEC50 [9]: 4.15
pEC50 [10]: 4.70
pEC50 [11]: 4.40
pEC50 [12]: 4.22
pEC50 [13]: 4.70
pEC50 [14]: 4.30
pEC50 [15]: 4.22
pEC50 [16]: 4.60
pEC50 [17]: 4.24
pEC50 [18]: 4.26
